Results: patent US20250108036A1, “COMPOSITIONS FOR REMOVING SENESCENT CELLS AND USES THEREOF” (LIFECEUTIX CO., LTD., priority 2021, published 2025)

What was measured:
Format in all cases: cell-based, human
[1] = tested on: foreskin cells in which senescence was induced by doxorubicin; test: CellTiter-Glo cell viability of doxorubicin-induced senescent foreskin cells (Examples 1-2, 10, 11, 13; Tables 4, 63, 65); details: Homo sapiens, 72 h, doxorubicin-induced senescent foreskin cells, CellTiter-Glo, 0 μM = 100, read-out: Survival (%); for viability at 1.1 µM: 1.1 μM test compound; for viability at […]: […] test compound; for viability at 10 µM: 10 μM test compound; for viability at 30 µM: 30 μM test compound; for viability at 90 µM: 90 μM test compound
Experimental: After 3 days, cell viability was measured using CellTiter-Glo Luminescent Cell Viability Assay (Promega) or light microscopy.

HMGN1 [2] = test: HMGN1 ELISA in culture medium of A549 cancer cells (Example 12, Table 66); details: Homo sapiens, A549, doxorubicin-induced senescent A549 cells, ELISA, DMSO = 100, read-out: HMGN1 (amount of HMGN1 secreted in the cell culture); for activity at 30 µM: test compound 30 μM; for activity at 90 µM: test compound 90 μM
HMGN1 [3] = test: HMGN1 ELISA in culture medium of foreskin cells (Examples 10, 11; Tables 62, 63, 64); details: Homo sapiens, doxorubicin-treated foreskin cells, DMSO = 100; for activity at 30 µM: 30 μM test compound, read-out: HMGN1; for activity at 90 µM: 90 μM test compound
A549 = test: CellTiter-Glo cell viability of senescent A549 cancer cells (Example 12, Table 67); details: Homo sapiens, A549, doxorubicin-induced senescent A549 cancer cells, CellTiter-Glo, read-out: Survival (%); for viability at 1.1 µM: 1.1 μM test compound; for viability at 10 µM: 10 μM test compound; for viability at 30 µM: 30 μM test compound; for viability at 90 µM: 90 μM test compound

## C[C@@H]1[C@H]2[C@H]3C(=O)C=C4[C@@]5(C)C=C(C#N)C(=O)C(C)(C)[C@@H]5CC[C@@]4(C)[C@]3(C)CC[C@@]2(c2nc(CCO)no2)CC[C@H]1C [LX-2511]
[1]
  viability at 1.1 µM: 43.5%
  viability at […]: 8.4%
HMGN1 [2]
  activity at 30 µM: 296%
HMGN1 [3]
  activity at 30 µM: 306%
A549
  viability at 1.1 µM: 97.2%
  viability at 10 µM: 2.1%

## C[C@@H]1[C@H]2[C@H]3C(=O)C=C4[C@@]5(C)C=C(C#N)C(=O)C(C)(C)[C@@H]5CC[C@@]4(C)[C@]3(C)CC[C@@]2(CO)CC[C@H]1C [LX-2512]
[1]
  viability at 1.1 µM: 38.2%
  viability at […]: 3.2%
HMGN1 [2]
  activity at 30 µM: 274%
HMGN1 [3]
  activity at 30 µM: 276%
A549
  viability at 1.1 µM: 88.5%
  viability at 10 µM: 11.7%

## COC(=O)[C@@]1(C)CC[C@]2(C)CC[C@]3(C)[C@H](C(=O)C=C4[C@@]5(C)C=C(C#N)C(=O)C(C)(C)C5CC[C@]43C)[C@@H]2C1 (some centres unmarked) [LX-2513, Soloxolone methyl]
[1]
  viability at 1.1 µM: 49.6%
  viability at […]: 2.6%
HMGN1 [2]
  activity at 30 µM: 311%
HMGN1 [3]
  activity at 30 µM: 325%
A549
  viability at 1.1 µM: 105%
  viability at 10 µM: 6.9%

## CC1(C)C(=O)C(C#N)=C[C@]2(C)C3=CC(=O)[C@@H]4[C@@H]5C[C@@](C)(C(=O)NCCc6c[nH]c7ccccc67)CC[C@]5(C)CC[C@@]4(C)[C@]3(C)CCC12 (some centres unmarked) [LX-2517, Soloxolone tryptamide]
[1]
  viability at 1.1 µM: 0.6%
HMGN1 [2]
  activity at 30 µM: 318%
HMGN1 [3]
  activity at 30 µM: 298%
A549
  viability at 1.1 µM: 8.4%

## C=C(CC)C(=O)c1ccc(OCC(=O)O)c(Cl)c1Cl [LX-2603, Ethacrynic acid, reference compound]
[1]
  viability at 1.1 µM: 100%
  viability at 10 µM: 95.8%
  viability at 30 µM: 52.6%
  viability at 90 µM: 37.8%
  viability at […]: 103%
HMGN1 [2]
  activity at 90 µM: 245%
HMGN1 [3]
  activity at 90 µM: 218%
A549
  viability at 1.1 µM: 98.7%
  viability at 10 µM: 89.1%
  viability at 30 µM: 41.5%
  viability at 90 µM: 1.8%

## CCCCC/C=C\C/C=C\C/C=C\C/C=C\CCCC(=O)O [LX-2701, Arachidonic acid]
[1]
  viability at 1.1 µM: 103%
  viability at 10 µM: 76.8%
  viability at 30 µM: 48.3%
  viability at 90 µM: 29.4%
  viability at […]: 97.3%
HMGN1 [2]
  activity at 90 µM: 179%
HMGN1 [3]
  activity at 90 µM: 194%
A549
  viability at 1.1 µM: 102%
  viability at 10 µM: 97.1%
  viability at 30 µM: 93.8%
  viability at 90 µM: 42.9%

## CC/C=C\C/C=C\C/C=C\C/C=C\C/C=C\C/C=C\CCC(=O)O [LX-2702, Docosahexaenoic acid]
[1]
  viability at 1.1 µM: 104%
  viability at 10 µM: 87.4%
  viability at 30 µM: 49.6%
  viability at 90 µM: 22.9%
  viability at […]: 99.1%
HMGN1 [2]
  activity at 90 µM: 237%
HMGN1 [3]
  activity at 90 µM: 206%
A549
  viability at 1.1 µM: 96.7%
  viability at 10 µM: 94.4%
  viability at 30 µM: 55.1%
  viability at 90 µM: 9.5%

## CCCCC/C=C\C/C=C\CCCCCCCC(=O)O [LX-2703, Linoleic acid]
[1]
  viability at 1.1 µM: 100%
  viability at 10 µM: 89.5%
  viability at 30 µM: 55.2%
  viability at 90 µM: 35.2%
  viability at […]: 100%
HMGN1 [2]
  activity at 90 µM: 202%
HMGN1 [3]
  activity at 90 µM: 218%
A549
  viability at 1.1 µM: 101%
  viability at 10 µM: 99.6%
  viability at 30 µM: 71.5%
  viability at 90 µM: 28.3%

## CCCCC/C=C\C/C=C\C/C=C\CCCCCCC(=O)O [LX-2705, Dihomogamma-linolenic acid]
[1]
  viability at 1.1 µM: 102%
  viability at 10 µM: 72.1%
  viability at 30 µM: 45.5%
  viability at 90 µM: 31.7%
  viability at […]: 102%
HMGN1 [2]
  activity at 90 µM: 160%
HMGN1 [3]
  activity at 90 µM: 202%
A549
  viability at 1.1 µM: 101%
  viability at 10 µM: 96.8%
  viability at 30 µM: 100%
  viability at 90 µM: 61.2%

## COC(=O)C1=C(C)NC(C)=C(C(=O)OC(C)(C)CN(C)CCC(c2ccccc2)c2ccccc2)C1c1cccc([N+](=O)[O-])c1 (centres unmarked) [LX-2801, Lercanidipine, reference compound]
[1]
  viability at 1.1 µM: 104%
  viability at 10 µM: 51.2%
  viability at 30 µM: 25.3%
  viability at […]: 98.5%
HMGN1 [2]
  activity at 30 µM: 315%
HMGN1 [3]
  activity at 30 µM: 241%
A549
  viability at 1.1 µM: 89.6%
  viability at 10 µM: 58.6%
  viability at 30 µM: 14.2%

## O=C1C(O)=C([C@H]2CC[C@H](c3ccc(Cl)cc3)CC2)C(=O)c2ccccc21 [LX-2802, Atovaquone, reference compound]
[1]
  viability at 1.1 µM: 102%
  viability at 10 µM: 58.4%
  viability at 30 µM: 17.2%
  viability at […]: 81.2%
HMGN1 [2]
  activity at 30 µM: 279%
HMGN1 [3]
  activity at 30 µM: 268%
A549
  viability at 1.1 µM: 101%
  viability at 10 µM: 74.1%
  viability at 30 µM: 35.7%
